# Results taken from patent US11111243B2, “Azaindole compounds as histone methyltransferase inhibitors” (GLOBAL BLOOD THERAPEUTICS, INC., priority 2017, dated 2021).
# Structures can show the parent of a compound that is named as a salt.
# Target: T1, G9a (Homo sapiens, UniProt Q96KQ7)
# T1 sequence (Q96KQ7 1-1210): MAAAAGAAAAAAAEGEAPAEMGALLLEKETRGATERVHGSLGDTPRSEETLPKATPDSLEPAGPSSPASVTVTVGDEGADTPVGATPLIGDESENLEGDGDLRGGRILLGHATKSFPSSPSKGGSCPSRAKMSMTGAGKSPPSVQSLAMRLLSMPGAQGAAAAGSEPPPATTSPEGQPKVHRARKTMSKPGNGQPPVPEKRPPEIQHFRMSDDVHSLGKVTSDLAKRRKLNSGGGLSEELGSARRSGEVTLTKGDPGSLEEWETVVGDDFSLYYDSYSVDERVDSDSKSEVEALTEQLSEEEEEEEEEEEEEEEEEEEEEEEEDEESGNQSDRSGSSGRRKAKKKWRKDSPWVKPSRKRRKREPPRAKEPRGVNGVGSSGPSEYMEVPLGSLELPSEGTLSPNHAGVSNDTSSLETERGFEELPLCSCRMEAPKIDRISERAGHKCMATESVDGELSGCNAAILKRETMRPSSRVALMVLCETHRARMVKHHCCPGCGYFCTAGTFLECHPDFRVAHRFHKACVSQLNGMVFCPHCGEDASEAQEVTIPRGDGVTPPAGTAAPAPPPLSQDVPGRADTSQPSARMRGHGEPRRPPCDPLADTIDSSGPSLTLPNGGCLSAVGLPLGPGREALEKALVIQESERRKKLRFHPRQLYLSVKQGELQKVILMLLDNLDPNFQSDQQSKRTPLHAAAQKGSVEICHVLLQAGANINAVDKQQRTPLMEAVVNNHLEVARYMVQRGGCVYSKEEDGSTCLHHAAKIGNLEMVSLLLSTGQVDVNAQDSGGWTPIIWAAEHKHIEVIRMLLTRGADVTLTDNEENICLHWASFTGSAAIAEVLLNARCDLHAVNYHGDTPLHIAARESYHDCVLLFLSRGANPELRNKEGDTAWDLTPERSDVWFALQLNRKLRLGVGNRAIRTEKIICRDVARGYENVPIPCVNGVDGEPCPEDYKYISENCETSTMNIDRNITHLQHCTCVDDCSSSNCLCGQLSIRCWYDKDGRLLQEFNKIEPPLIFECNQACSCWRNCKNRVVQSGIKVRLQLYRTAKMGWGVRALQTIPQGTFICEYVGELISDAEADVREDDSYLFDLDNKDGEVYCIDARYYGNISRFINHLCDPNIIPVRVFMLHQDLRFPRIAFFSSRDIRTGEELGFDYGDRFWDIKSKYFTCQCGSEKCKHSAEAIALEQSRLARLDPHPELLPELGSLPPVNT
# Test: G9a AlphaLISA enzymatic activity assay
# Format: biochemical
# Conditions: 0.15 nM G9a, 10 uM S-adenosyl-methionine, 100 nM biotinylated histone 3 peptide (1-21), 1 h room temperature
# Text: The G9a AlphaLISA assay was used to detect the methyl modifications of a biotinylated histone H3 peptide by the compounds. These modifications are done by the histone methyl transferase activity of the G9a enzyme. The assay consists of reading a chemiluminescent signal at 615 nm; this signal is generated by a laser excitation at 680 nm that transfers a reactive singlet oxygen between the donor beads and acceptor beads. Donor beads are streptavidin conjugated and bind to the biotin on the peptide. Acceptor beads are conjugated with an antibody that recognizes the specific G9a methyl mark on the peptide. If there is a methyl mark on the peptide, the acceptor beads will bind to the peptide. Upon binding, the acceptor beads will be in close proximity (<200 nm) of the donor beads and when the donor beads are excited, the transfer of the oxygen can occur and a strong signal will be generated. If there is no methyl mark, the interaction between beads will not occur and signal will be at background levels.
# For the assay, the following buffer was used to set up reactions: 50 mM Tris-HCl pH9, 50 mM NaCl, 0.01% Tween-20 and 1 mM DTT (added fresh prior to starting the reactions). The assay is set up by adding a final concentration of 0.15 nM G9a, 10 uM S-adenosyl-methionine and, 100 nM biotinylated histone 3 peptide (1-21). The reaction is incubated at room temperature for 1 h, and subsequently quenched by the addition of the acceptor beads (anti-H3k9me2 AlphaLISA acceptor beads, PerkinElmer #AL117) at a final concentration of 20 ug/mL. The acceptor beads are incubated for 1 h. After 1 h, the donor beads are added at a final concentration of 20 ug/mL (Alpha Streptavidin donor beads, PerkinElmer #6760002). Donor beads are incubated for 0.5 h. Both donor and acceptor beads are resuspended in AlphaLISA 5× Epigenetics Buffer 1 Kit (PerkinElmer #AL008) prior to addition to the reaction. All manipulations and incubations with the donor and acceptor beads are done in subdued light. Signal is detected in an EnVision plate reader in Alpha mode (See ACS Med Chem Lett. 2014 Jan. 2; 5(2):205-9)
# Percent inhibition was calculated for each compound dilution and the concentration that produced 50% inhibition was calculated. This value is presented as the IC50.
row,SMILES,IC50 [nM]
1,"COc1cc2c(cc1OCCCN1CCCC1)[nH]c1ccncc12 [Compound 6, 1-[3-({8-methoxy-5H-pyrido[4,3-b]indol-7-yl}oxy)propyl]pyrrolidine]",3.2
2,"COc1cc2c(cc1OCCCN1CCCC1)[nH]c1ncccc12 [Compound 7, 1-[3-({6-methoxy-9H-pyrido[2,3-b]indol-7-yl}oxy)propyl]pyrrolidine]",280
3,"COc1cc2c(cc1OCCCN1CCCC1)[nH]c1cc(N)ncc12 [Compound 8, 8-methoxy-7-[3-(pyrrolidin-1-yl)propoxy]-5H-pyrido[4,3-b]indol-3-amine]",5.3
4,"COc1cc2c(cc1OCCCN1CCCC1)[nH]c1ccnc(F)c12 [Compound 9, 1-[3-({1-fluoro-8-methoxy-5H-pyrido[4,3-b]indol-7-yl}oxy)propyl]pyrrolidine]",590
5,"COc1cc2c(cc1OCCCN1CCCC1)[nH]c1cc(N)nc(C)c12 [Compound 10, 8-methoxy-1-methyl-7-[3-(pyrrolidin-1-yl)propoxy]-5H-pyrido[4,3-b]indol-3-amine]",4.5
6,"COc1cc2c(cc1OCCCN1CCCC1)[nH]c1ccnc(N3CC[C@H](O)C3)c12 [Compound 11, (3S)-1-{8-methoxy-7-[3-(pyrrolidin-1-yl)propoxy]-5H-pyrido[4,3-b]indol-1-yl}pyrrolidin-3-ol]",8.2
7,"COc1cc2c(cc1OCCCN1CCCC1)[nH]c1ccnc(C3CC3)c12 [Compound 12, 1-[3-({1-cyclopropyl-8-methoxy-5H-pyrido[4,3-b]indol-7-yl}oxy)propyl]pyrrolidine]",1 to 3
8,"COc1cc2c(cc1OCCCN1CCCC1)[nH]c1ccnc(N3CC[C@@H](O)C3)c12 [Compound 13, (3R)-1-{8-methoxy-7-[3-(pyrrolidin-1-yl)propoxy]-5H-pyrido[4,3-b]indol-1-yl}pyrrolidin-3-ol]",34
9,"COC[C@H](C)Nc1nccc2[nH]c3cc(OCCCN4CCCC4)c(OC)cc3c12 [Compound 14, 8-methoxy-N-[(2S)-1-methoxypropan-2-yl]-7-[3-(pyrrolidin-1-yl)propoxy]-5H-pyrido[4,3-b]indol-1-amine]",6.5
10,"COc1cc2c(cc1OCCCN1CCCC1)[nH]c1ccnc(N3CCCC3)c12 [Compound 15, 1-{8-methoxy-7-[3-(pyrrolidin-1-yl)propoxy]-5H-pyrido[4,3-b]indol-1-yl}pyrrolidine]",3.3
11,"COc1cc2c(cc1OCCCN1CCCC1)[nH]c1ccnc(N3CCC(O)CC3)c12 [Compound 16, 1-{8-methoxy-7-[3-(pyrrolidin-1-yl)propoxy]-5H-pyrido[4,3-b]indol-1-yl}piperidin-4-ol]",61
12,"COc1cc2c(cc1OCCCN1CCCC1)[nH]c1ccnc(N3CCOCC3)c12 [Compound 17, 4-{8-methoxy-7-[3-(pyrrolidin-1-yl)propoxy]-5H-pyrido[4,3-b]indol-1-yl}morpholine]",370
13,"COc1cc2c(cc1OCCCN1CCCC1)[nH]c1ccnc(N3CC(O)C3)c12 [Compound 18, 1-{8-methoxy-7-[3-(pyrrolidin-1-yl)propoxy]-5H-pyrido[4,3-b]indol-1-yl}azelidin-3-ol]",12
14,"COc1cc2c(cc1OCCCN1CCCC1)[nH]c1ccnc(N3CC4CCC(C3)O4)c12 [Compound 19, 3-{8-methoxy-7-[3-(pyrrolidin-1-yl)propoxy]-5H-pyrido[4,3-b]indol-1-yl}-8-oxa-3-azabicyclo[3.2.1]octane]",300
15,"CCOCCNc1nccc2[nH]c3cc(OCCCN4CCCC4)c(OC)cc3c12 [Compound 20, N-(2-ethoxyethyl)-8-methoxy-7-[3-(pyrrolidin-1-yl)propoxy]-5H-pyrido[4,3-b]indol-1-amine]",7
16,"CCCc1nccc2[nH]c3cc(OCCCN4CCCC4)c(OC)cc3c12 [Compound 21, 1-[3-({8-methoxy-1-propyl-5H-pyrido[4,3-b]indol-7-yl}oxy)-propyl]pyrrolidine]",3.3
17,"COc1cc2c(cc1OCCCN1CCCC1)[nH]c1ncncc12 [Compound 22, 1-[3-({6-methoxy-9H-pyrimido-[4,5-b]indol-7-yl}oxy)propyl]-pyrrolidine]",570
18,"COc1cc2c(cc1OCCCN1CCCC1)[nH]c1ccnc(-c3ccncc3)c12 [Compound 23, 8-methoxy-1-(pyridin-4-yl)-7-(3-(pyrrolidin-1-yl)propoxy)-5H-pyrido[4,3-b]indole]",100
19,"COc1cc2c(cc1OCCCN1CCCC1)[nH]c1ccnc(-c3cccnc3)c12 [Compound 24, 8-methoxy-1-(pyridin-3-yl)-7-(3-(pyrrolidin-1-yl)propoxy)-5H-pyrido[4,3-b]indole]",93
20,"COc1cc2c(cc1OCCCN1CCCC1)[nH]c1ccnc(-c3ccccn3)c12 [Compound 25, 8-methoxy-1-(pyridin-2-yl)-7-(3-(pyrrolidin-1-yl)propoxy)-5H-pyrido[4,3-b]indole]",140
21,"COc1c(OCCCN2CCCC2)ccc2c1[nH]c1cccnc12 [Compound 26, 1-[3-({6-methoxy-5H-pyrido[3,2-b]indol-7-yl}oxy)propyl]pyrrolidine hydrochloride]",250
22,"COc1cc2c(cc1OCCCN1CCCC1)[nH]c1cccnc12 [Compound 27, 1-[3-({8-methoxy-5H-pyrido[3,2-b]indol-7-yl}oxy)propyl]pyrrolidine hydrochloride]",150
23,"COc1cc2c(cc1OCCCN1CCCC1)[nH]c1cnccc12 [Compound 28, 1-[3-({6-methoxy-9H-pyrido[3,4-b]indol-7-yl}oxy)propyl]pyrrolidine hydrochloride]",60
24,"COc1cc2c(cc1OCCCN1CCCC1)[nH]c1ccnc(C)c12 [Compound 29, 1-[3-({8-methoxy-1-methyl-5H-pyrido[4,3-b]indol-7-yl}oxy)propyl]pyrrolidine hydrochloride]",1.2
25,"COc1cc2c(cc1OCCCN1CCCC1)[nH]c1ccncc12 [Compound 31, 1-[3-({8-methoxy-5H-pyrido[4,3-b]indol-7-yl}oxy)propyl]pyrrolidine hydrochloride]",3.6
26,"COc1cc2c(cc1OCCCN1CCCC1)[nH]c1nc(N)ccc12 [Compound 33, 6-methoxy-7-[3-(pyrrolidin-1-yl)propoxy]-9H-pyrido[2,3-b]indol-2-amine hydrochloride]",320
27,"COc1cc2c(cc1OCCCN1CCCC1)[nH]c1ccnc(N3CCCC3)c12 [Compound 39, 1-{8-methoxy-7-[3-(pyrrolidin-1-yl)propoxy]-5H-pyrido[4,3-b]indol-1-yl}pyrrolidine]",5.7
28,"COc1cc2c(cc1OCCCN1CCCC1)[nH]c1ccnc(C3CC3)c12 [Compound 43, 1-[3-({1-cyclopropyl-8-methoxy-5H-pyrido[4,3-b]indol-7-yl}oxy)propyl]pyrrolidine]",1.3
29,"COc1cc2c(cc1OCCCN1CCCC1)[nH]c1cncnc12 [Compound 44, 1-[3-({8-methoxy-5H-pyrimido[5,4-b]indol-7-yl}oxy)propyl]pyrrolidine]",170
